Experiment [1] has as its system AcylCoA:Cholesterol Acyltransferase (ACAT). Put plainly: AcylCoA:Cholesterol Acyltransferase (ACAT) inhibition Assay. Type of experiment: cell-based. The arrangement: key: compounds which inhibit ACAT activity equal to, or greater than, that of chlorpromazine are considered "active". Particulars: active = equal to or greater than chlorpromazine; Fu5AH cells preferred. An excerpt:
ACAT esterifies arterial cholesterol which is a key reaction in the development of atherosclerosis. The procedure of Bell, Can. J. Blochem. 60. […] In the ACAT assay it is preferred to use Fu5AH cells, see Lipids 9, 526 (1974). According to this procedure, compounds which inhibit ACAT activity equal to, or greater than, that of chlorpromazine are considered "active".

In experiment [2] the test system is serum and arterial cholesterol. The experiment can be described thus: Antiatherosclerosis screen in Susceptible to Experimental Atherosclerosis (SEA) Japanese Quail. It counts as in vivo. Particulars: SEA Japanese quail fed atherogenic diet; active = decrease >30 %. As to the method: While not necessary, some minor modifications for extraction of cholesterol from the artery have been made. These are as follows: frozen arteries are homogenized in hexane/isopropanol (3/2) and the volume adjusted with Triton 100 solution (1.5% in hexane/isopropanol) to 7 ml. After standing 12 hr at 20°-25°, the supernatant, obtained by low speed centrifugation is evaporated until dry and then the residue is suspended in 0.5 ml of 5% Triton 100 in isopropanol. This suspension is incubated for 10 min at 45° to dissolve the material. This solution as well as the diluted serum samples are analyzed for cholesterol by standard clinical chemistry analyzer methods. According to the above procedure compounds which decrease serum or arterial cholesterol >30 % are considered to be "active".
Compounds which reduce serum and arterial cholesterol and are useful in treating atherosclerosis and its complications; for example, reduction of serum cholesterol by drugs reduces the incidence of coronary heart disease JAMA 251, 351 (1984) and JAMA 251, 365 (1984).

In the next experiment the test system is mouse head injury. Put plainly: in vivo mouse head injury procedure of Hall, grip test. Conditions: statistically significant (p<0.05).
Another experiment deals with arachidonic acid. The experiment can be described thus: Arachidonic Acid Antagonism Assay (AAAA). It counts as in vivo, mouse (Charles River male CF-1). Conditions: mice. As to the method: While not necessary to determine arachidonic acid antagonism, the above assay has been modified as follows: Charles River male CF-1 mice weighing […] are treated IV with the test compound dissolved in 1.0% Tween-80 and 0.1% hydrochloric acid in distilled water. 0 2 ml total volume. Fifteen minutes later sodium arachidonate (90% pure) in physiological (normal) […] is injected into the tail vein. The LD50 is measured using the Spearman-Karber method with a log dose interval of 0.05 (N-6). Compounds which elevate the LD50 outside of the 95% confidence interval of the control LD50 are considered to be "active".

A further experiment has as its system interleukin-1. Put plainly: inhibition of interleukin-1 induced T cell proliferation assay. Conditions: interleukin-1; 10^-6 M. It counts as cell-based. An excerpt: The inhibition of interleukin-1 induced T cell proliferation assay, Proc. Nat. […] Since people with arthritis make excess interleukin 1, compounds which inhibit the activity of interleukin 1 are useful in the treatment of arthritis. According to this procedure compounds which inhibit the activity of interleukin 1 greater that 30% at 10^-6 M are considered to be "active".

For experiment [3], the system named is induced mucous secretions. Put plainly: inhibition of mucous secretion assay of Johnson. Conditions: inhibit or block enhancement of induced mucous secretions. From the text:
The inhibition of mucous secretion assay of Johnson Int. […] According to this procedure compounds which inhibit or block enhancement of induced mucous secretions when tested are considered to be "active".

The subject of another experiment is angiogenesis. The experiment can be described thus: fertile egg or chick embryo assay of Folkman (inhibition of angiogenesis / tumor growth). Type of experiment: in vivo. Conditions: chick embryo; 50 μg/10 μl in the presence of heparin. Here is the method:
According to this procedure compounds which are considered to be "active" (i.e, antiangiogenic) give an avascular zone of 4 mm or greater in some embryos when tested at 50 μg/10 μl in the presence of 50 μg/10 μ of heparin.

For a further experiment, the system named is aspirin induced ulcer. Put plainly: aspirin/cold induced ulcer assay of Rainsford. It counts as in vivo. Conditions: active = 50% or more reduction of ulcer index.
The subject of experiment [4] is MDA formation in rat brain synaptosomes. Put plainly: Malonyldialdehyde (MDA) Formation Assay (lipid peroxidation). It counts as biochemical. Particulars: active = 50% inhibition or more at 200 μM or less. From the text:
The MDA assays of Buege and Aust, Methods in Enzymology, Fleisher and Packer Editors. Academic Press, 1978, New York, Vol LII, p 302-310 and Kohn and Liversedge, J. Pharmacol. Exp. Ther. 82. […] Since iipid peroxidation is involved in the pathophysiology of central nervous system trauma, compounds which inhibit MDA formation are useful in treating the conditions listed below.
While not necessary to determine MDA formation, the above assays have been modified as follows: rat brain synaptosomes are prepared as described in the Example about the conjugated diene assay, except that the final wash of the synaptosomes and final suspension are in physiological (normal) saline in which the pH has been adjusted to 7 0. The synaptosomes are incubated for 10 min at 37° in physiological (normal) saline pH 7.0 (total volume=100 ul) containing; 10 ul synaptosomal suspension. 10% DMSO plus or minus drug. 150 uM Fe^+++ and 50 uM Fe^++. The incubation is started by the rapid addition of iron to the otherwise complete reaction. The iron solutions are prepared fresh as ferric chloride and ferrous ammonium sulfate in argon-purged water. Following the 10 min incubation, the reaction is stopped by the addition of 500 ul ice-cold 12% trichloroacetic acid prepared in 0.5 N hydrochloric acid. Water (300 ul) is then added along with 100 ul of freshly prepared thiobarbituric acid (3.3% in 0.5N sodium hydroxide) and 10 ul of 5mM desferrioxamine. The sample is then heated in a boiling water bath for 20 minutes. The samples are cooled and centrifuged for 15 minutes at 1500 xg and the absorbance of the supernatant fraction is read at 532 nm. The % inhibition of MDA formation is calculated by dividing the absorbance of sample containing drug by the absorbance of samples incubated without drug. Reaction blanks are samples incubated in the absence of iron A compound that inhibits MDA formation by 50% or more at a concentration of 200μM or less is considered "active".

Molecules are shown by their SMILES. Where a name gives a salt, the structure may show the parent alone.

In the case of `C[C@]12CCC(=O)C=C1CC[C@@H]1C2=CC[C@@]2(C)[C@H]1CC[C@]2(O)C(=O)CN1CCN(c2ccccn2)CC1.Cl` [Example 3, 17α-Hydroxy-21-[4-(2-pyridinyl) 1 piperazinyl]pregna-4,9(11)-diene-3,20dione hydrogen chloride salt], the “inhibition of ACAT” value in [1] is listed as “active”. In [2], the “reduction of arterial cholesterol” value was “demonstrates reduction of serum and arterial cholesterol”; the “reduction of serum cholesterol” value was “demonstrates reduction of serum and arterial cholesterol”.
Usually % Inhibition stands for the percentage by which the read-out fell short of the control. Regarding `C[C@]12CCC(=O)C=C1CC[C@@H]1C2=CC[C@@]2(C)[C@H]1CC[C@]2(O)C(=O)CN1CCOCC1` [Example 93, 17α-hydroxy-21-(4-morpholino)-pregna-4,9(11)-diene-3,20-dione(E)-2-butanedioate (1:1) salt], the “% Increase in 1 hr Post-Injury Grip Test Scores After 3 mg/kg” value with mouse head injury came to 134.5%. Also, the “arachidonic acid antagonism (elevation of LD50 of arachidonic acid)” value in the experiment with arachidonic acid (IV, 15 min before sodium arachidonate, outside 95% confidence interval of control LD50) is listed as “demonstrate arachidonic acid antagonism”. For the same compound, in the experiment on interleukin-1, the “% Inhibition at 10^-6 M” value came to 62%.
As to `CCN(CC)c1cc(N2CCN(CC(=O)[C@@]3(O)CC[C@H]4[C@@H]5CCC6=CC(=O)CC[C@]6(C)C5=CC[C@@]43C)CC2)nc(N(CC)CC)n1` [Example 16, 17α-Hydroxy-21-[4-[2,6-bis(diethylamino)pyrimidinyl]-1-piperazinyl]pregna4,9(11)-diene-3,20-dione dihydro-chloridehydrate], in the experiment with interleukin-1, the “% Inhibition at 10^-6 M” value was found to be 84%. Also, the “inhibition of mucous secretion” value in experiment [3] is “demonstrate such activity”. In addition, the “% of Embryos with 4 mm or Greater A vascular Zone” value in the experiment on angiogenesis came out at 91%. Further, in the experiment on aspirin induced ulcer, the anti-ulcer activity entry was “demonstrates anti-ulcer activity”.
As to `CCN(CC)c1nc(N2CCCCC2)cc(N2CCN(CC(=O)[C@@]3(O)CC[C@H]4[C@@H]5CCC6=CC(=O)CC[C@]6(C)C5=CC[C@@]43C)CC2)n1.Cl.O` [Example 17, 17α-Hydroxy-21-[4-[2-(diethylamino)-6-(1-piperidinyl)-4-pyrimidinyl]-1-piperazinyl]pregna-4,9(11)-diene-3,20-dione hydrochloride hydrate], the “% of Control LD50” value in the experiment with arachidonic acid (100 mg/kg, LD50 of sodium arachidonate) worked out at 150%. Further, the “inhibition of MDA formation” value in [4] is “demonstrate such activity”. For the same compound, the “inhibition of ACAT” value in experiment [1] is recorded as “active”.
As for `CCN(CC)c1cc(N2CCN(CC(=O)[C@@]3(O)[C@H](C)C[C@H]4[C@@H]5CCC6=CC(=O)C=C[C@]6(C)C5=CC[C@@]43C)CC2)nc(N(CC)CC)n1.Cl.O` [Example 18, 21-[4-[2,6-Bis(diethylamino)-4-pyrimidinyl]-1-piperazinyl]-17α-hydroxy-16α-methylpregna-1,4,9(11)-triene-3,20-dione hydrochloride hydrate], the “inhibition of ACAT” value in experiment [1] is reported as “active”. Also, in experiment [3], the “inhibition of mucous secretion” value is reported as “demonstrate such activity”.
With `CCNc1cccc(N2CCN(CC(=O)[C@H]3[C@H](C)C[C@H]4[C@@H]5CCC6=CC(=O)C=C[C@]6(C)C5=CC[C@@]43C)CC2)n1` [Example 127, 21-[4-[6-(Ethylamino)-2-pyridinyl]piperazinyl]-16α-methylpregna-1,4,9(11)-triene-3,20-dione hydrochloride], the “% Increase in 1 hr Post-Injury Grip Test Scores After 3 mg/kg” value with mouse head injury is 200.8%.

The values above are taken from patent USRE35053E, “Amines useful in producing pharmaceutically active CNS compounds” (The Upjohn Company, priority 1992, dated 1995).
